According to US6083973A, “Methods for inhibiting mucin secretion using RAR α selective antagonists” (Syntex (U.S.A.) Inc., priority 1999, dated 2000):

Experiments:
[1] = target: T1, RARα (Homo sapiens, UniProt P10276); assay: Transactivation of RARα relative to ATRA; type: biochemical; settings: both compounds at 10000 nM, read-out: Transactivation EC50 % MAX, RARα
T1 sequence (P10276 1-462): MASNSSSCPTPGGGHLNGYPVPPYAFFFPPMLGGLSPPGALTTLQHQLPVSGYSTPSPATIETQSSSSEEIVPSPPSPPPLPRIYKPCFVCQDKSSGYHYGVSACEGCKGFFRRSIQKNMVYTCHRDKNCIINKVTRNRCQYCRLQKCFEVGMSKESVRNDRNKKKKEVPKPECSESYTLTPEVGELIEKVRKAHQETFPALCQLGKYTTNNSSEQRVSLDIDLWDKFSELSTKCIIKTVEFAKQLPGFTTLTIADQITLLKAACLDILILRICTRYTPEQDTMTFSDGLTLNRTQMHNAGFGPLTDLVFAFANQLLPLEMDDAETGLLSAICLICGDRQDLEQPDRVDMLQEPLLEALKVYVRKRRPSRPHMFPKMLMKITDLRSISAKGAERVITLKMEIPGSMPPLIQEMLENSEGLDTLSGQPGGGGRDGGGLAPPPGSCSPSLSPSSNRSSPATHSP
Description: (§1) As used herein, the term "EC50 " of a retinoid for a retinoic acid receptor means the transactivation by the retinoid of the particular retinoic acid receptor under consideration relative to the transactivation of that same receptor by ATRA under identical conditions with both retinoids at the same concentration (1000 nM or 10000 nM depending on the highest concentration tested). Values are expressed as a percentage.
(§2) As used herein, the term "transactivation" refers to the ability of a retinoid to activate the transcription of a gene where the gene transcription is initiated by the binding of a ligand to the particular retinoic acid receptor being tested, i.e., RARα, RARβ, or RARγ. Determining the ability of a compound to transactivate a retinoic acid receptor may be performed by methods known to those of skill in the art. Examples of such methods are found in Bernard, et al. Biochem. Biophys. Res. Commun., 186:977-983 (1992) and C. Apfel, et al. Proc. Nat. Sci. Acad. (USA), 89:7129-7133 (1992).
(§3) EC50 's were determined relative to ATRA, with both compounds at 10000 nM. Values are expressed as a percentage of transactivation relative to ATRA.

[2] = target: T2, RARβ (Homo sapiens, UniProt P10826); assay: Transactivation of RARβ relative to ATRA; type: biochemical; settings: both compounds at 10000 nM, read-out: Transactivation EC50 % MAX, RARβ
T2 sequence (P10826 1-455): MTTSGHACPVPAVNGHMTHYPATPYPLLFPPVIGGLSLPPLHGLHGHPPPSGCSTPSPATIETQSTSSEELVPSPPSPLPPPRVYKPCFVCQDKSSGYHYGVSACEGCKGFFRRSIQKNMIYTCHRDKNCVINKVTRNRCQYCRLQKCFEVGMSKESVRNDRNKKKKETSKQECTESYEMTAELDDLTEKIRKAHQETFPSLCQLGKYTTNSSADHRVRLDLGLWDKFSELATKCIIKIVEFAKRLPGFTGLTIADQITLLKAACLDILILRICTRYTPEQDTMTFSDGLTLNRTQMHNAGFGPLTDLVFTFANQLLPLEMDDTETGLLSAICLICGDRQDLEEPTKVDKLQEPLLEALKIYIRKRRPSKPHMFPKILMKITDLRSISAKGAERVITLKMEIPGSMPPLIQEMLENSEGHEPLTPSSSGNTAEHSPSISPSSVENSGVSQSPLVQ
Description: as §1, §2, §3

[3] = target: T3, RARγ (Homo sapiens, UniProt P13631); assay: Transactivation of RARγ relative to ATRA; type: biochemical; settings: both compounds at 10000 nM, read-out: Transactivation EC50 % MAX, RARγ
T3 sequence (P13631 1-454): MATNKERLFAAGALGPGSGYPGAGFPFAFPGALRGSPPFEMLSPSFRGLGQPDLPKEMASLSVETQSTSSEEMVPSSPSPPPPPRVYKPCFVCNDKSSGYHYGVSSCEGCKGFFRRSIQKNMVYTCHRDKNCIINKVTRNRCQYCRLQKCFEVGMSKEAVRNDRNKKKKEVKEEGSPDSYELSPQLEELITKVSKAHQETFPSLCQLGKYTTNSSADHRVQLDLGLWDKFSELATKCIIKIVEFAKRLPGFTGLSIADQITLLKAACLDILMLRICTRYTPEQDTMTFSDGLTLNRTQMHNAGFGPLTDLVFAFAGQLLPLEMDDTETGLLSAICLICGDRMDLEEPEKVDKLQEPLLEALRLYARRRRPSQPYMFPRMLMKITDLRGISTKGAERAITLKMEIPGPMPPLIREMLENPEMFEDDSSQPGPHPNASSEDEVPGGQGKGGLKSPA
Description: as §1, §2, §3

[4] = target: T1, RARα; assay: RAR binding, competition with labelled ATRA, α
Description: (§4) The term "IC50 " of a retinoid for a retinoic acid receptor refers to the concentration of the retinoid at which binding by ATRA to that particular receptor is inhibited by 50%. Binding is measured by competition of the retinoid with labelled ATRA.
(§5) The RARα antagonist selectivity of a compound can be determined by routine ligand binding assays known to one of skill in the art such as described in C. Apfel, et al. Proc. Nat. Sci. Acad. (USA), 89:7129-7133 (1992); M. Teng, et al, J. Med. Chem., 40:2445-2451 (1997); and PCT Publication WO 96/30009.

[5] = target: T2, RARβ; assay: RAR binding, competition with labelled ATRA, β
Description: as §4, §5

[6] = target: T3, RARγ; assay: RAR binding, competition with labelled ATRA, γ
Description: as §4, §5

[7] = tested on: MUC2; assay: MUC2 gene transactivation in NHBE cells, RT-PCR; type: cell-based, human; settings: even at the highest dose, 1×10^-6 M, Example 2
Description: (§6) Transactivation of mucin genes in normal primary human bronchial epithelial cells (NHBE) was performed as described by Gray et al. Am. J. Respir. Biol., 14:104-112 (1996). Primary human airway epithelial cells were cultured on porous Transwell membranes (Corning/Costar) in defined media in the absence of all-trans retinoic acid (ATRA) for 7 days. After seven days, fresh media±ATRA or selective retinoid, was added to the basal culture compartment to create an air-liquid interface (ALI). ATRA and/or selective retinoids were used at a concentration or 1×10^-7 M. The selective retinoids used were: Compound X (RARα selective agonist), RXR agonist (SRI 11217) and anti-AP1 retinoid (SRI 11302). After seven additional days of culture the media was harvested for analysis of secreted mucin gene product using specific ELISA as previously described (Gray et al). The cell layer was lysed using a guanidinium-based buffer (TRIZOL/Sigma) for RNA extraction and analysis. Amplification of MUC2 and MUC5AC RNA was performed by standard RT-PCR using appropriate selective primer and mimics pairs (Guzman et al., Am. J. Physiol. 271 (Lung Cell Mol Physiol.15): L1023-L1028 (1996) and PCR products were detected in ethedium bromide stained agarose gels.
(§7) Transactivation of mucin genes in NHBE was performed as described above with the exception that media was supplemented with RAR alpha (RARα), beta (RARβ), or gamma (RARγ)-selective retinoids on days 7 through day 14. The RAR alpha (RARα), beta (RARβ), or gamma (RARγ)-selective retinoids were compounds X, Y and CD-437 respectively.
(§8) Transactivation of mucin genes in NHBE was performed as described above. On days 7 through day 14 cells were cultured with 1×10^-6 M RARα antagonist, Compound Z, alone or in combination with 1×10^-7 M ATRA or RARα selective agonist, Compound X. The effects on mucin gene transactivation and expression were determined by RT-PCR and ELISA as described above. RARα selective antagonist, Compound Z, had no effect on MUC2 or MUC5AC gene expression.

[8] = tested on: MUC5AC; assay: MUC5AC gene transactivation in NHBE cells, RT-PCR; type: cell-based, human; settings: even at the highest dose, 1×10^-6 M, Example 2
Description: as §6, §7, §8

Emax at 10 µM [1] [%] | % transactivation relative to ATRA at 10 µM [2] [%] | Emax at 10 µM [3] [%] | IC50 [4] [nM] | IC50 [5] [nM] | IC50 [6] [nM] | SMILES | Induction of MUC2 [7] | Induction of MUC5AC [8]
27 | 17 | 36 | 200 | < 10000 | < 10000 | CCCCCCCOc1cc2c(cc1/C(C)=C/C=C/C(C)=C/C(=O)O)C(C)(C)CCS2 |  | 
12 | 20 | 30 | 180 | 6400 | 2200 | CCCCCCCOc1cc2c(cc1/C(C)=C/C=C/C(C)=C/C(=O)O)C(C)(C)CCCS2(=O)=O |  | 
13 | 10 | 11 | 440 | > 10000 | 3700 | CCCCCCCOc1cc2c(cc1/C(C)=C/C=C/C(C)=C/C(=O)O)C(C)(C)CC[S+]2[O-] (stereo not drawn) |  | 
24 | 31 | 20 | 450 | > 10000 | > 10000 | CCCCCCCOc1cc2c(cc1\C(C)=C/C=C/C(C)=C/C(=O)O)C(C)(C)CCS2(=O)=O |  | 
20 | 32 | 46 | 250 | 2500 | 1300 | CCCCCCOc1cc2c(cc1/C(C)=C/C=C/C(C)=C/C(=O)O)C(C)(C)CCCS2(=O)=O |  | 
9 | 14 | 16 | 27 | 5100 | 2400 | CCCCCCCOc1cc2c(cc1/C(C)=C/C=C/C(C)=C/C(=O)O)C(C)(C)CCS2(=O)=O [drawing 4] |  | 

Continued, molecule first:

SMILES | Emax at 10 µM [1] [%] | % transactivation relative to ATRA at 10 µM [2] [%] | Emax at 10 µM [3] [%] | IC50 [4] [nM] | IC50 [5] [nM] | IC50 [6] [nM] | Induction of MUC2 [7] | Induction of MUC5AC [8]
CCCCCCCCc1cc2c(cc1/C(C)=C/C=C/C(C)=C/C(=O)O)C(C)(C)CCCS2(=O)=O | 11 | 35 | 33 | 47 | 4900 | 1000 |  | 
CCCCCCCCc1cc2c(cc1/C(C)=C/c1ccc(C(=O)O)cc1)C(C)(C)CCS2(=O)=O | 16 | 15 | 32 | 70 | 1900 | 2300 |  | 
CCCCCCCOc1cc2c(cc1/C(C)=C/c1ccc(C(=O)O)cc1)C(C)(C)CCCS2(=O)=O | 14 | 7 | 18 | 190 | 3000 | 2500 |  | 
CCCCCCCOc1cc2c(cc1-c1ccc3cc(C(=O)O)ccc3c1)C(C)(C)CCS2(=O)=O | 8 | 17 | 14 | 360 | 2800 | 1400 |  | 
CCCCCCCOc1cc2c(cc1/C(C)=C/c1ccc(C(=O)O)cc1)C(C)CCCS2(=O)=O (stereo not drawn) | 5 | 7 |  | 530 | 5100 | 3000 |  | 
CCCCCCCOc1cc2c(cc1C#Cc1ccc(C(=O)O)cc1)C(C)(C)CCS2(=O)=O | 18 | 6 | 20 | 240 | 3500 | 2900 |  | 
CCCCCCCCc1cc2c(cc1/C(C)=C/c1ccc(C(=O)O)cc1)C(C)(C)CCCS2(=O)=O | 18 | 13 | 36 | 200 | 3300 | 1800 |  | 
CCCCCCCCOc1cc2c(cc1/C(C)=C/c1ccc(C(=O)O)cc1)C(C)(C)CCCS2(=O)=O | 8 | 21 | 25 | 390 | 6900 | 2600 |  | 
CCCCCCOc1cc2c(cc1/C(C)=C/c1ccc(C(=O)O)cc1)C(C)(C)CCCS2(=O)=O | 14 | 37 | 54 | 580 | 3800 | 2600 |  | 
CCCCCCCOc1cc2c(cc1/C(C)=C/c1ccc(C(=O)O)cc1)C(C)(C)CS2(=O)=O | 11 | 22 | 24 | 160 | 6900 | 3400 |  | 
O=C(O)c1ccc2cc(-c3ccc(O)c(C45CC6CC(CC(C6)C4)C5)c3)ccc2c1 [CD-437, 6-[3-(1-adamantyl)-4-hydroxyphenyl]-2-naphthalenecarboxylic acid] |  |  |  |  |  |  | minimal | minimal
CCCCCCCOc1cc2c(cc1/C(C)=C/c1ccc(C(=O)O)cc1)C(C)(C)CCS2(=O)=O [drawing 3] | 16 | 3 | 9 | 77 |  | 4200 |  | 
